Type in all cases: cell-based
For assay [1], the system named is HT29 (human colon adenocarcinoma). Kind of assay: Cell viability (resazurin) assay, 2D model, HT29. Particulars: 48 h incubation, three independent experiments, read-out: IC50 ± SEM, HT29.
Procedure: (§1) First, the cytotoxic activity of the compounds was investigated in different cancerous and noncancerous cell lines, namely, HT29 (human colon adenocarcinoma), A549 (human lung adenocarcinoma), and RPE-1 (human retinal epithelium). Cisplatin was used as a positive control. Cells were first incubated for 48 h with the complexes before cell viability was measured with a colorimetric resazurin assay.
(§2) Ce ll Culture: T he RPE-1 c ell l ine wa s cul ture d in DME M /F12 med iu m (G ibco) . T h e HT29 c ell line was
culture d in McCoy me dium (Gibco).
(§3) All ce ll line s were co mple me nted wit h 10% o f fetal calf ser um ( Gibco) and 100 U.mL-1 penicillin-
(§4) streptomycin mixture (Gibco) and maintained in a humidiﬁed atmosphere at 37 °C and 5% CO2.
(§5) Cell Viability Assay using a 2D Cellular Model: The cytotoxicity of the compounds was assessed by a
(§6) ﬂuorometric ce ll viability assay using Resazurin (Acros Organics) . Brieﬂy, ce l ls were s ee de d in tri pl ic ate
(§7) in 96-well plates at a 4×10^3 cells/well density in 100 μL Gibco McCoy’s 5A (1X) + GlutaMAX (Modiﬁed
(§8) Medium) with 10 % FBS and 1% Penicillin/Streptomycin. AŌer 24 h, cells were treated with increasing
(§9) concentraƟons of the compo unds and cisplaƟn. DiluƟons for the compounds were prepared f rom 10
(§10) mM stock in DMSO which were diluted to 100 - 0,01 μM with medium. AŌer 48 h of incubaƟon, the
(§11) medium was removed and 100 μL of complete medium containing resazurin (0.2 mg.mL-1 ﬁnal
(§12) concentraƟon) was adde d. AŌer 4 h of incubaƟon at 37 °C, the ﬂuoresc ence signal of the resoruﬁn
(§13) values were then calculated using the GraphPad Prism soŌware.
Assay [2] deals with A549 (human lung adenocarcinoma). Kind of assay: Cell viability (resazurin) assay, 2D model, A549. Particulars: 48 h incubation, three independent experiments, read-out: IC50 ± SEM, A549.
Procedure: as §1, §2
culture d in McCoy me dium (Gibco).
as §3, §4, §5, §6, §7, §8, §9, §10, §11, §12, §13
Assay [3] deals with RPE-1 (human retinal epithelium). Kind of assay: Cell viability (resazurin) assay, 2D model, RPE-1. Particulars: 48 h incubation, noncancerous cell line, three independent experiments, read-out: IC50 ± SEM, RPE-1.
Procedure: as §1, §2
culture d in McCoy me dium (Gibco).
as §3, §4, §5, §6, §7, §8, §9, §10, §11, §12, §13

The structures appear in SMILES notation.

Turning to `[Cl][Cu][Cl]` [CuCl2], the IC50 in assay [1], in assay [2] and in assay [3] was greater than 100 µM each time.

Turning to `N.N.[Cl][Pt][Cl]` [cisplatin], the IC50 is 7.84 ± 0.57 µM in assay [1], 10.9 ± 0.17 µM in assay [2] and 22.6 ± 2.74 µM in assay [3].

In the case of `N.[O]=[Re](=[O])(=[O])[OH]` [(NH4)[ReO4]], the IC50 in assay [1], in assay [2] and in assay [3] was greater than 100 µM throughout.

Values taken from article PMC11445722, “Synthesis, Characterization, and Biological Evaluation of Novel [M(η^6-arene)2]^+ (M = Re, ^99mTc) Hosted Terpyridines and Copper Complexes Thereof” (Inorganic Chemistry, 2024).
